Experimental data taken from patent US9783573B2, “IAP antagonists” (BRISTOL-MYERS SQUIBB COMPANY, priority 2012, dated 2017).

What was measured:
His-BIR3 (241-356, XIAP) = His-BIR3 (241-356, XIAP) (Homo sapiens (Human), UniProt P98170); assay: XIAP-BIR3/SMAC Homogeneous Time Resolved Fluorescence (HTRF) Assay; format: binding; details: fluorescein labeled SMAC peptide
Method: B. XIAP-BIR3/SMAC Homogeneous Time Resolved Fluorescence (HTRF) Assay
(§1) Assays were performed in black, flat-bottom, 384-well plates.

[1] = target: His-BIR2-3 (125-356, C202A/C213G, XIAP) (Homo sapiens (Human), UniProt P98170, C202A/C213G); assay: XIAP-BIR2-3 Dimeric SMAC Peptide Homogeneous Time Resolved Fluorescence (HTRF) Assay; format: binding; details: fluorescein labeled dimeric SMAC peptide
Method: D. XIAP-BIR2-3 Dimeric SMAC Peptide Homogeneous Time Resolved Fluorescence (HTRF) Assay
as §1

SMILES	IC50 (His-BIR3 (241-356, XIAP))	IC50 [1]
CN[C@@H](C)C(=O)N[C@H](C(=O)N1Cc2cc(NC(=O)c3ccc(C(=O)N[C@H]4C[C@@H](C(=O)N[C@@H]5CCCc6ccccc65)N(C(=O)[C@@H](NC(=O)[C@H](C)NC)C(C)(C)C)C4)cc3)ccc2C[C@H]1C(=O)N[C@@H](COC)c1ccccc1)C(C)(C)C [Example 13, N^1-((S)-2-((S)-3,3-Dimethyl-2-((S)-2-(methylamino)propanamido)butanoyl)-3-(((R)-2-methoxy-1-phenylethyl)carbamoyl)-1,2,3,4-tetrahydroisoquinolin-7-yl)-N^4-((3S,5S)-1-((S)-3,3-dimethyl-2-((S)-2-(methylamino)propanamido)butanoyl)-5-(((R)-1,2,3,4-tetrahydronaphthalen-1-yl)carbamoyl)pyrrolidin-3-yl)terephthalamide]	12 nM	11 nM
CN[C@@H](C)C(=O)N[C@H](C(=O)N1Cc2cc(C(=O)Nc3ncc(C(=O)N[C@H]4C[C@@H](C(=O)N[C@@H]5CCCc6ccccc65)N(C(=O)[C@@H](NC(=O)[C@H](C)NC)C(C)(C)C)C4)s3)ccc2C[C@H]1C(=O)N[C@@H]1CCCc2ccccc21)C(C)(C)C [Example 21, (S)-2-((S)-3,3-Dimethyl-2-((S)-2-(methylamino)propanamido)butanoyl)-N^7-(5-(((3S,5S)-1-((S)-3,3-dimethyl-2-((S)-2-(methylamino)propanamido)butanoyl)-5-(((R)-1,2,3,4-tetrahydronaphthalen-1-yl)carbamoyl)pyrrolidin-3-yl)carbamoyl)thiazol-2-yl)-N^3-((R)-1,2,3,4-tetrahydronaphthalen-1-yl)-1,2,3,4-tetrahydroisoquinoline-3,7-dicarboxamide]	17 nM	6 nM
CN[C@@H](C)C(=O)N[C@H](C(=O)N1Cc2cc(C(=O)Nc3nc(C(=O)N[C@H]4C[C@@H](C(=O)N[C@@H]5CCCc6ccccc65)N(C(=O)[C@@H](NC(=O)[C@H](C)NC)C(C)(C)C)C4)co3)ccc2C[C@H]1C(=O)N[C@@H]1CCCc2ccccc21)C(C)(C)C [Example 22, (S)-2-((S)-3,3-Dimethyl-2-((S)-2-(methylamino)propanamido)butanoyl)-N^7-(4-(((3S,5S)-1-((S)-3,3-dimethyl-2-((S)-2-(methylamino)propanamido)butanoyl)-5-(((R)-1,2,3,4-tetrahydronaphthalen-1-yl)carbamoyl)pyrrolidin-3-yl)carbamoyl)oxazol-2-yl)-N^3-((R)-1,2,3,4-tetrahydronaphthalen-1-yl)-1,2,3,4-tetrahydroisoquinoline-3,7-dicarboxamide]	14 nM	4 nM
CN[C@@H](C)C(=O)N[C@H](C(=O)N1Cc2cc(C(=O)Nc3ccc4cc(C(=O)N[C@H]5C[C@@H](C(=O)N[C@@H]6CCCc7ccccc76)N(C(=O)[C@@H](NC(=O)[C@H](C)NC)C(C)(C)C)C5)[nH]c4c3)ccc2C[C@H]1C(=O)N[C@@H]1CCCc2ccccc21)C(C)(C)C [Example 24, (S)-2-((S)-3,3-Dimethyl-2-((S)-2-(methylamino)propanamido)butanoyl)-N^7-(2-(((3S,5S)-1-((S)-3,3-dimethyl-2-((S)-2-(methylamino)propanamido)butanoyl)-5-(((R)-1,2,3,4-tetrahydronaphthalen-1-yl)carbamoyl)pyrrolidin-3-yl)carbamoyl)-1H-indol-6-yl)-N^3-((R)-1,2,3,4-tetrahydronaphthalen-1-yl)-1,2,3,4-tetrahydroisoquinoline-3,7-dicarboxamide]	93 nM	33 nM
CCN[C@@H](C)C(=O)N[C@H](C(=O)N1Cc2cc(OCc3ccc(C(=O)NC4C[C@@H](C(=O)NC5CCCc6ccccc65)N(C(=O)[C@@H](NC(=O)[C@H](C)NC)C(C)(C)C)C4)cc3)ccc2C[C@H]1C(=O)NC1CCCc2ccccc21)C(C)(C)C (stereo partly drawn) [Example 39]	89 nM	65 nM
CN[C@@H](C)C(=O)N[C@H](C(=O)N1Cc2cc(NC(=O)c3ccc4c(ccn4C(=O)N[C@H]4C[C@@H](C(=O)N[C@@H]5CCCc6ccccc65)N(C(=O)[C@@H](NC(=O)[C@H](C)NC)C(C)(C)C)C4)c3)ccc2C[C@H]1C(=O)N[C@@H]1CCCc2ccccc21)C(C)(C)C [Example 49, N^5—((S)-2-((S)-3,3-Dimethyl-2-((S)-2-(methylamino)propanamido)butanoyl)-3-(((R)-1,2,3,4-tetrahydronaphthalen-1-yl)carbamoyl)-1,2,3,4-tetrahydroisoquinolin-7-yl)-N^1-((3S,5S)-1-((S)-3,3-dimethyl-2-((S)-2-(methylamino)propanamido)butanoyl)-5-(((R)-1,2,3,4-tetrahydronaphthalen-1-yl)carbamoyl)pyrrolidin-3-yl)-1H-indole-1,5-dicarboxamide]	51 nM	22 nM
CN[C@@H](C)C(=O)N[C@H](C(=O)N1Cc2cc(NC(=O)c3cccc4c3ccn4C(=O)N[C@H]3C[C@@H](C(=O)N[C@@H]4CCCc5ccccc54)N(C(=O)[C@@H](NC(=O)[C@H](C)NC)C(C)(C)C)C3)ccc2C[C@H]1C(=O)N[C@H](C)c1ccccc1F)C(C)(C)C [Example 51]	54 nM	27 nM
CN[C@@H](C)C(=O)N[C@H](C(=O)N1Cc2cc(NC(=O)c3cccc4c3ccn4C(=O)N[C@H]3C[C@@H](C(=O)N[C@@H]4CCCc5ccccc54)N(C(=O)[C@@H](NC(=O)[C@H](C)NC)C(C)(C)C)C3)ccc2C[C@H]1C(=O)N[C@@H]1CCCc2ccccc21)C(C)(C)C [Example 54, N^4-((S)-2-((S)-3,3-Dimethyl-2-((S)-2-(methylamino)propanamido)butanoyl)-3-(((R)-1,2,3,4-tetrahydronaphthalen-1-yl)carbamoyl)-1,2,3,4-tetrahydroisoquinolin-7-yl)-N^1-((3S,5S)-1-((S)-3,3-dimethyl-2-((S)-2-(methylamino)propanamido)butanoyl)-5-(((R)-1,2,3,4-tetrahydronaphthalen-1-yl)carbamoyl)pyrrolidin-3-yl)-1H-indole-1,4-dicarboxamide]	76 nM	21 nM
CN[C@@H](C)C(=O)N[C@H](C(=O)N1C[C@@H](NC(=O)c2ccc(C(=O)Nc3ccc4c(c3)CN(C(=O)[C@@H](NC(=O)[C@H](C)NC)C(C)(C)SC)[C@H](C(=O)N[C@@H]3CCCc5ccccc53)C4)cc2)C[C@H]1C(=O)N[C@@H]1CCCc2ccccc21)C(C)(C)C [Example 55, N^1-((3S,5S)-1-((S)-3,3-Dimethyl-2-((S)-2-(methylamino)propanamido)butanoyl)-5-(((R)-1,2,3,4-tetrahydronaphthalen-1-yl)carbamoyl)pyrrolidin-3-yl)-N^4—((S)-2-((R)-3-methyl-2-((S)-2-(methylamino)propanamido)-3-(methylthio)butanoyl)-3-(((R)-1,2,3,4-tetrahydronaphthalen-1-yl)carbamoyl)-1,2,3,4-tetrahydroisoquinolin-7-yl)terephthalamide]	9 nM	4 nM
CN[C@@H](C)C(=O)N[C@H](C(=O)N1C[C@@H](NC(=O)c2ccc(C(=O)Nc3ccc4c(c3)CN(C(=O)[C@@H](NC(=O)[C@H](C)NC)C(C)(C)SCC(=O)OC)[C@H](C(=O)N[C@@H]3CCCc5ccccc53)C4)cc2)C[C@H]1C(=O)N[C@@H]1CCCc2ccccc21)C(C)(C)C [Example 56, Methyl 2-(((R)-4-((S)-7-(4-(((3S,5S)-1-((S)-3,3-dimethyl-2-((S)-2-(methylamino)propanamido)butanoyl)-5-(((R)-1,2,3,4-tetrahydronaphthalen-1-yl)carbamoyl)pyrrolidin-3-yl)carbamoyl)benzamido)-3-(((R)-1,2,3,4-tetrahydronaphthalen-1-yl)carbamoyl)-3,4-dihydroisoquinolin-2(1H)-yl)-2-methyl-3-((S)-2-(methylamino)propanamido)-4-oxobutan-2-yl)thio)acetate]	17 nM	12 nM
CN[C@@H](C)C(=O)N[C@H](C(=O)N1C[C@@H](NC(=O)c2ccc(C(=O)Nc3ccc4c(c3)CN(C(=O)[C@@H](NC(=O)[C@H](C)NC)C(C)(C)SCC(=O)O)[C@H](C(=O)N[C@@H]3CCCc5ccccc53)C4)cc2)C[C@H]1C(=O)N[C@@H]1CCCc2ccccc21)C(C)(C)C [Example 57, 2-(((R)-4-((S)-7-(4-(((3S,5S)-1-((S)-3,3-Dimethyl-2-((S)-2-(methylamino)propanamido)butanoyl)-5-(((R)-1,2,3,4-tetrahydronaphthalen-1-yl)carbamoyl)pyrrolidin-3-yl)carbamoyl)benzamido)-3-(((R)-1,2,3,4-tetrahydronaphthalen-1-yl)carbamoyl)-3,4-dihydroisoquinolin-2(1H)-yl)-2-methyl-3-((S)-2-(methylamino)propanamido)-4-oxobutan-2-yl)thio)acetic acid]	10 nM	6 nM
CN[C@@H](C)C(=O)N[C@H](C(=O)N1C[C@@H](NC(=O)c2ccc(C(=O)Nc3ccc4c(c3)CN(C(=O)[C@@H](NC(=O)[C@H](C)NC)C(C)(C)SCC(=O)N3CCCCC3)[C@H](C(=O)N[C@@H]3CCCc5ccccc53)C4)cc2)C[C@H]1C(=O)N[C@@H]1CCCc2ccccc21)C(C)(C)C [Example 58, N^1-((3S,5S)-1-((S)-3,3-Dimethyl-2-((S)-2-(methylamino)propanamido)butanoyl)-5-(((R)-1,2,3,4-tetrahydronaphthalen-1-yl)carbamoyl)pyrrolidin-3-yl)-N^4—((S)-2-((R)-3-methyl-2-((S)-2-(methylamino)propanamido)-3-((2-oxo-2-(piperidin-1-yl)ethyl)thio)butanoyl)-3-(((R)-1,2,3,4-tetrahydronaphthalen-1-yl)carbamoyl)-1,2,3,4-tetrahydroisoquinolin-7-yl)terephthalamide]	27 nM	18 nM
